# Patent US20010051630A1, “Use of hydroxylamine derivatives, and method and preparations for increasing the tolerance of field crops against weather stresses” (priority 1997, published 2001)
# Marks after values point to notes of the source that are not given here.
# Columns and labels:
# HMv09 inbred maize line = assay: CSVT, seeds soaked in active agent, HMv09 maize; assay type: in vivo; conditions: seeds soaked in 10 mg/l active agent
# Procedure: (§1) In this experiment the tolerance of maize, soybean and pepper seeds treated with the active agent against cold was tested. This test imposed temperature and oxygen deficiency stresses on the seeds and was carried out according to Barla-Szabó and Dolinka CSVT (Complex Stressing Vigour Test). For a single test, two hundred seeds were soaked for 48 hours at 25° C. and another 48 hours at 5° C in 150 ml distilled water containing the active agent in 10 mg/l concentration. Following the 96 hours of soaking, the seeds were further germinated between rolled wet paper for 96 hours at 25° C. There were 25 seeds in each roll, the rolls were placed vertically into containers and covered with a plastic bag in order to reduce evaporation. During the whole procedure the seeds were kept in darkness. At the end of the experiment the number of normally developing and ungerminated seeds were recorded. The length of the normal seedlings was measured and the average length of the five longest seedlings was calculated. Seedlings longer than 0.33 times the average length of the five longest seedlings were considered to be of high vigour, and low vigour seedlings were shorter than this length.
# Mo 17 inbred maize line = assay: CSVT (Complex Stressing Vigour Test), seeds soaked in active agent, Mo 17 maize; assay type: in vivo; conditions: seeds soaked in 10 mg/l active agent, * = significant vs control P < 0.05
# Procedure: as §1
# [1] = tested on: maize of low chilling tolerance (LT) population; assay: CSVT, maize population of low chilling tolerance (LT); assay type: in vivo
# Procedure: as §1, with “darkness.” for “darkness. At the end of the experiment the number of normally developing and ungerminated seeds were recorded. The length of the normal seedlings was measured and the average length of the five longest seedlings was calculated. Seedlings longer than 0.33 times the average length of the five longest seedlings were considered to be of high vigour, and low vigour seedlings were shorter than this length.”
# (§2) At the end of the experiment the number of normally developing and ungerminated seeds were recorded. The length of the normal seedlings was measured and the average length of the five longest seedlings was calculated. Seedlings longer than 0.33 times the average length of the five longest seedlings were considered to be of high vigour, and low vigour seedlings were shorter than this length.
# (§3) In the case of a further experiment with maize of low chilling tolerance (LT) and high chilling tolerance (HT) populations [Ref: P. Landi, E. Frascaroli, A. Lovato; EUPHYTICA 64 21-29 (1992)], the following positive effects were found (Table 3.).
# McCall soybeans = assay: CSVT with PVA-pearled McCall soybeans, relative length; assay type: in vivo, soybean; conditions: 2.5 mg in 1 ml 2.5% PVA per 100 seeds
# Procedure: as §1, with “darkness.” for “darkness. At the end of the experiment the number of normally developing and ungerminated seeds were recorded. The length of the normal seedlings was measured and the average length of the five longest seedlings was calculated. Seedlings longer than 0.33 times the average length of the five longest seedlings were considered to be of high vigour, and low vigour seedlings were shorter than this length.”
# In a further CSVT experiment also using McCall soybeans, polyvinylalcohol (PVA) was applied for pearling the seeds. The 2.5 mg doses of the active agents were dissolved in 1 ml of 2.5% PVA solution, and this quantity was applied to 100 pieces of seeds. The improvement of the chilling tolerance is observed by the significant elongation of the germ and the roots.
# [2] = tested on: maize of high chilling tolerance (HT) population; assay: CSVT, maize population of high chilling tolerance (HT); assay type: in vivo
# Procedure: as §1, with “darkness.” for “darkness. At the end of the experiment the number of normally developing and ungerminated seeds were recorded. The length of the normal seedlings was measured and the average length of the five longest seedlings was calculated. Seedlings longer than 0.33 times the average length of the five longest seedlings were considered to be of high vigour, and low vigour seedlings were shorter than this length.”
# as §2, §3
# soybean cv. Bólyi 44 = assay: Field soybean cultivation, yield; assay type: in vivo; conditions: for Weight of the crop (kg/m^2): seeds pearled with 1 mg active agent in 1 ml 5% PVA per 100 seeds; for Improvement compared to the control (%): weight of the crop
# Procedure: The experiment was performed using soybean cv. Bólyi 44. Before sowing, the seeds were treated with Rhyzobium Japonicum nitrogen-binding bacterium, which forms a root nodule providing 50-70% of the nitrogen demand of the plant.
# The examined compounds were applied by pearling the seeds; 1 ml of pearling agent containing 1 mg of active agent in a 5% aqueous PVA solution was used for 100 seeds.
# The plants were sown after soil preparation in the autumn, using a crop rotation system, 3-5 cm deep in the ground, with a 45-50 cm row distance, a 5 cm plant distance and 450,000-500,000 plant/ha density. The date of sowing was Apr. 15, 1997. During the development of the plant, the usual cultivation procedures were followed and the usual pesticides were used. The harvest took place in September-October, with the water content of the grains being between 16-18%.
# Mo 17 maize inbred line = assay: Chilling tolerance of maize in a gradient chamber; assay type: in vivo
# Procedure: The experiment was performed using the Mo 17 maize inbred line. The seeds were coated with a 2% solution of the examined compound dissolved in 2 ml polyvinylalcohol before germination, where the above quantity of solution is applied for 100 seeds. The seeds were germinated for 3 days wrapped in wet filter paper, they were sown and then cultivated in gradient chamber for 6 weeks. In the gradient chamber, the temperature was maintained on a scale between 18 and 12° C., with differences of 1° C. This was followed by a one week regeneration at 23/20° C. temperature.
# In the experiment, the length of the plants was measured 16, 31 and 43 days after the sowing, and at the end of the experiment the fresh weight of the plants was measured. The experiment was performed on 4 plants at each temperature and by each treatment.
# Seaway bean cultivar = assay: Drought tolerance of beans, part a (5 days hardening); assay type: in vivo; conditions: 7 days without water, one week regeneration
# Text: Based on the experiences of our preliminary experiments, the plants were hardened before the application of the active agent by withholding the water for a few days, until the first signs of withering appeared. Then the plants were watered and the active agent was either dissolved in the water, or sprayed to the plants directly. Afterwards, the plants were subjected to different periods of drought according to the given experiment, watered again, and after a week-long regeneration period, the survival ratio was determined.
# a) Seaway bean cultivar was hardened for 5 days by withholding the water. Afterwards the plantlets were watered for two days normally. During this time, a 10 mg/liter and 100 mg/liter concentration solution of the active agent was applied two times a day dissolved in water or by direct spraying. Then the water was withheld for 7 days, and after a week-long regeneration period, the survival ratio was determined.
Compound,Ratio of high vigour plants (%) (HMv09 inbred maize line),Ratio of high vigour plants (%) (Mo 17 inbred maize line),"Ratio of high vigour plants %, LT [1]","Relative length (control = 100), germ (McCall soybeans)","Relative length (control = 100), root (McCall soybeans)","Ratio of high vigour plants %, HT [2]",Weight of the crop (kg/m^2) (soybean cv. Bólyi 44),Improvement compared to the control (%) (soybean cv. Bólyi 44),"Length (cm) (Mo 17 maize inbred line; 12° C., 16 days)","Length (cm) (Mo 17 maize inbred line; 12° C., 31 days)","FW (g), fresh weight (Mo 17 maize inbred line; 12° C., 43 days) [g]","Length (cm) (Mo 17 maize inbred line; 12° C., 43 days)","Length (cm) (Mo 17 maize inbred line; 13° C., 16 days)","Length (cm) (Mo 17 maize inbred line; 13° C., 31 days)","FW (g), fresh weight (Mo 17 maize inbred line; 13° C., 43 days) [g]","Length (cm) (Mo 17 maize inbred line; 13° C., 43 days)","Length (cm) (Mo 17 maize inbred line; 14° C., 16 days)","Length (cm) (Mo 17 maize inbred line; 14° C., 31 days)","FW (g), fresh weight (Mo 17 maize inbred line; 14° C., 43 days) [g]","Length (cm) (Mo 17 maize inbred line; 14° C., 43 days)",also measured
"Cl.ClC(=NOCCCN1CCCCC1)c1cccs1 [Compound 10, N-[3-(1-piperidinyl)propoxy]-thiophene-2-carboximidoylchloride hydrochloride]",45* %,–,–,–,–,–,–,–,–,–,–,–,–,–,–,–,–,–,–,–,–
N-[2-hydroxy-3-(1-piperidinyl)propoxy]-ethylurethane [Compound 7],–,24%,–,–,–,–,–,–,–,–,–,–,–,–,–,–,–,–,–,–,–
"CCCCCCCCCCCCCCCC(=O)OC(CONC(=N)c1cccnc1)CN1CCCCC1.Cl (stereo not drawn) [Compound 2, N-[2-palmitoyloxy-3-(1-piperidinyl)propoxy]-3-pyridinecarboximidamide Monohydrochloride]",–,47* %,86* %,133,150,92* %,–,–,–,–,–,–,–,–,–,–,–,–,–,–,–
"Cl.O=[N+]([O-])c1ccccc1C(Cl)=NOCC(O)CN1CCCCC1 (stereo not drawn) [Compound 4, N-[2-hydroxy-3-(1-piperidinyl)propoxy]-2′-nitro-benzenecarboximidoyl Chloride Monohydrochloride]",–,32* %,92* %,116,135,96* %,0.50,11.1,5.8,11.3,1.5,20.1,7.4,13.1,2.1,23.8,9.7,17.2,2.9,25.1,"Length (cm) (Mo 17 maize inbred line; 15° C., 16 days): 10.2 cm; Length (cm) (Mo 17 maize inbred line; 15° C., 31 days): 21.3 cm; FW (g), fresh weight (Mo 17 maize inbred line; 15° C., 43 days): 4.4 g; Length (cm) (Mo 17 maize inbred line; 15° C., 43 days): 32.3 cm; Length (cm) (Mo 17 maize inbred line; 16° C., 16 days): 15.4 cm; Length (cm) (Mo 17 maize inbred line; 16° C., 31 days): 26.8 cm; FW (g), fresh weight (Mo 17 maize inbred line; 16° C., 43 days): 5.0 g; Length (cm) (Mo 17 maize inbred line; 16° C., 43 days): 34.5 cm; Length (cm) (Mo 17 maize inbred line; 17° C., 16 days): 19.7 cm; Length (cm) (Mo 17 maize inbred line; 17° C., 31 days): 31.2 cm; FW (g), fresh weight (Mo 17 maize inbred line; 17° C., 43 days): 6.6 g; Length (cm) (Mo 17 maize inbred line; 17° C., 43 days): 37.3 cm; Length (cm) (Mo 17 maize inbred line; 18° C., 16 days): 15.0 cm; Length (cm) (Mo 17 maize inbred line; 18° C., 31 days): 28.4 cm; FW (g), fresh weight (Mo 17 maize inbred line; 18° C., 43 days): 6.2 g; Length (cm) (Mo 17 maize inbred line; 18° C., 43 days): 38.0 cm"
"CC(C)(C)NCC(O)CONC(=Nc1ccccc1)c1ccccc1.Cl (stereo not drawn) [Compound 5, N-[[3-(1,1-dimethylethyl)-amino]-2-hydroxypropoxy]-N′-phenyl-benzamidine hydrochloride]",57* %,35* %,–,127,152,–,0.52,15.5,4.5,10.9,2.0,25.5,4.7,10.0,1.1,18.5,5.8,11.6,1.3,20.3,"Length (cm) (Mo 17 maize inbred line; 15° C., 16 days): 9.5 cm; Length (cm) (Mo 17 maize inbred line; 15° C., 31 days): 22.2 cm; FW (g), fresh weight (Mo 17 maize inbred line; 15° C., 43 days): 5.4 g; Length (cm) (Mo 17 maize inbred line; 15° C., 43 days): 34.0 cm; Length (cm) (Mo 17 maize inbred line; 16° C., 16 days): 12.4 cm; Length (cm) (Mo 17 maize inbred line; 16° C., 31 days): 26.4 cm; FW (g), fresh weight (Mo 17 maize inbred line; 16° C., 43 days): 7.7 g; Length (cm) (Mo 17 maize inbred line; 16° C., 43 days): 42.3 cm; Length (cm) (Mo 17 maize inbred line; 17° C., 16 days): 17.8 cm; Length (cm) (Mo 17 maize inbred line; 17° C., 31 days): 29.9 cm; FW (g), fresh weight (Mo 17 maize inbred line; 17° C., 43 days): 9.7 g; Length (cm) (Mo 17 maize inbred line; 17° C., 43 days): 44.3 cm; Length (cm) (Mo 17 maize inbred line; 18° C., 16 days): 14.6 cm; Length (cm) (Mo 17 maize inbred line; 18° C., 31 days): 25.0 cm; FW (g), fresh weight (Mo 17 maize inbred line; 18° C., 43 days): 7.6 g; Length (cm) (Mo 17 maize inbred line; 18° C., 43 days): 39.0 cm; survival (%), Watering (10 mg/l) (Seaway bean cultivar): 25* %; survival (%), Watering (100 mg/l) (Seaway bean cultivar): 36* %"
